Results as given in patent publication US20240287138A1, “CYCLIC PEPTIDES FOR INHIBITING TNF RECEPTOR 1 ACTIVITY” (Merck Sharp & Dohme LLC, priority 2023, published 2024).
pKd: −log10 of the molar value. Like-named read-outs stand apart in the source and are kept apart here. Numbered stars: 1 amine (or outer) side, 2 acyl side, 3 side chain; on linkers, the order of the positions; unused ones are H or OH. Square brackets hold non-standard residues; d marks the D form. Peptide text beside a SMILES is read from it. * marks the point of attachment. Trp(βS-Me,7-OMe) = COc1cccc2c([C@H](C)[C@H](N)C(=O)O)c[nH]c12; Trp(1-CH2COOH) = N[C@@H](Cc1cn(CC(=O)O)c2ccccc12)C(=O)O; Phe(4-SO2NH2) = N[C@@H](Cc1ccc(S(N)(=O)=O)cc1)C(=O)O; dPro(trans-4-NMe2) = CN(C)[C@@H]1CN[C@@H](C(=O)O)C1; Trp(7-CN) = N#Cc1cccc2c(C[C@H](N)C(=O)O)c[nH]c12; X20 = O=C1NCc2ccc(C[C@H](N[*:1])C(=O)[*:2])cc21; Phe(3-CONH2) = NC(=O)c1cccc(C[C@H](N)C(=O)O)c1; Phe(4-CONH2) = NC(=O)c1ccc(C[C@H](N)C(=O)O)cc1; Phe(4-COOH) = N[C@@H](Cc1ccc(C(=O)O)cc1)C(=O)O; dPro(trans-4-F) = O=C(O)[C@H]1C[C@H](F)CN1; dPro(4S-NH2) = N[C@@H]1CN[C@@H](C(=O)O)C1; Pip(5R-OH) = O=C(O)[C@@H]1CC[C@@H](O)CN1; X1 = O=C([C@@H]1CC[C@H](N[*:1])C1)[*:2]; 4Pal = N[C@@H](Cc1ccncc1)C(=O)O; dHyp = O=C(O)[C@H]1C[C@H](O)CN1; αMeS = C[C@](N)(CO)C(=O)O; Carboxymethyl = O=C(O)C*; Nle = CCCC[C@H](N)C(=O)O; Sar = CNCC(=O)O

Columns and labels:
[1] = biological target: T1, human TNFR1 extracellular domain (ECD) protein (Homo sapiens, UniProt P19438); experiment: SPR binding affinity to captured human TNFR1 ECD
T1 construct: HRV 3C protease cleavage site (C); 6His (C, cleaved yes); made in house; host or cells: Sf21 insect cells (baculovirus), secreted
T1 sequence (P19438 30-211): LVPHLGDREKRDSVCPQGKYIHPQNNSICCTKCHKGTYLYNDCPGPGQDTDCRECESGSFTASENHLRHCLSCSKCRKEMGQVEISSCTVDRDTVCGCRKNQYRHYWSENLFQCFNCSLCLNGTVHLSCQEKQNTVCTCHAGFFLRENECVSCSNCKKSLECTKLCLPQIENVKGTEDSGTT
Outline: (§1)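 Read-out: kon, koff and derived affinity from SPR response units. Human TNFR1 and TNFR2 ECD, Avi-tag biotinylated with BirA, captured on a streptavidin surface; peptides injected under laminar flow in HEPES-saline with EDTA, P20 and 2% DMSO.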

[2] = biological target: T2, human TNFR2 ECD protein (Homo sapiens, UniProt P20333); experiment: SPR off-target binding (selectivity) to human TNFR2 ECD
T2 construct: HRV 3C protease cleavage site (C); 6His (C, cleaved yes); made in house; host or cells: Sf21 insect cells (baculovirus), secreted
T2 sequence (P20333 23-257): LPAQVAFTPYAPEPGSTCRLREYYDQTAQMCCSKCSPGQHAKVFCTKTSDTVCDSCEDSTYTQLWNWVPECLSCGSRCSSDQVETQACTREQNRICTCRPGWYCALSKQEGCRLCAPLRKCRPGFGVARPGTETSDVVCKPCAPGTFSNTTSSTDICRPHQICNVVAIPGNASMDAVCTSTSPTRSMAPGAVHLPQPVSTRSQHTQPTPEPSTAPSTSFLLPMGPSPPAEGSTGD
Outline: as §1

[3] = biological target: T3, human soluble TNFR1 (sTNFR1) (Homo sapiens, UniProt P19438); experiment: Human sTNFR1-peptide displacement assay (LanthaScreen Eu TR-FRET binding assay)
T3 construct: made in house; host or cells: Sf21 (baculovirus)
T3 sequence (P19438 with tags, fused parts or gaps): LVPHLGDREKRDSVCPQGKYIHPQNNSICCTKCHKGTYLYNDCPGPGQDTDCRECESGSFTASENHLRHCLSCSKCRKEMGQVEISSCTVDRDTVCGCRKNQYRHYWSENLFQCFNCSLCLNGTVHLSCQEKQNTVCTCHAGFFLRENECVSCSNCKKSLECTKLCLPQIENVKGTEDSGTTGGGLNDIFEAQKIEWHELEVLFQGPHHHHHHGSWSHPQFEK
Outline: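 Readout is the 665/615 nm TR-FRET ratio (Eu anti-His donor, streptavidin-Alexa647 acceptor), normalized to DMSO and saturating displacer, fit by Morrison-based five-parameter logistic for Kd^app. His-tagged sTNFR1 (1-211) prebound to 100 nM biotinylated peptide SEQ ID NO.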

[4] = biotinylated human TNFR1 ECD on streptavidin chip, from kon and koff, read-out: SPR hTNFR1 KD
[5] = biotinylated human TNFR2 ECD on streptavidin chip, read-out: SPR hTNFR2 KD
[6] = displacement of biotinylated peptide SEQ ID NO. 1 from sTNFR1, 20 point titration, 5-parameter fit based on Morrison equation (tight binding), read-out: TR-FRET Kd^app

SMILES	pKd [1]	pKd [2]	pKd [3]	pKd [1, 4]	pKd [2, 5]	pKd [3, 6]
CCCC[C@@H]1NC(=O)[C@@H]2CC[C@@H](C2)NC(=O)[C@H]([C@@H](C)c2c[nH]c3c(OC)cccc23)NC(=O)CN(C)C(=O)[C@H](Cc2ccc(C(N)=O)cc2)NC(=O)[C@H](Cc2ccc(S(N)(=O)=O)cc2)NC(=O)[C@](C)(CO)NC(=O)[C@H](Cc2c[nH]c3c(C#N)cccc23)NC(=O)[C@H](Cc2ccc(C(=O)O)cc2)NC(=O)[C@H](CC(N)=O)NC(=O)[C@H]2C[C@H](N(C)C)CN2C(=O)[C@H](Cc2cn(CC(=O)O)c3ccccc23)NC(=O)[C@@H]2CC[C@@H](O)CN2C(=O)[C@H](Cc2ccncc2)NC1=O [SEQ ID NO. 2] (cyclo([4Pal][Pip(5R-OH)][Trp(1-CH2COOH)][dPro(trans-4-NMe2)]N[Phe(4-COOH)][Trp(7-CN)][αMeS][Phe(4-SO2NH2)][Phe(4-CONH2)][Sar][Trp(βS-Me,7-OMe)][X1][Nle]))	10.15	< 6.00	10.15	–	–	–
CCCC[C@@H]1NC(=O)[C@@H]2CC[C@@H](C2)NC(=O)[C@H]([C@@H](C)c2c[nH]c3c(OC)cccc23)NC(=O)CN(C)C(=O)[C@H](Cc2ccc(OCC(=O)O)cc2)NC(=O)[C@H](Cc2ccc(S(N)(=O)=O)cc2)NC(=O)[C@](C)(CO)NC(=O)[C@H](Cc2c[nH]c3c(C#N)cccc23)NC(=O)[C@H](Cc2ccc(OCC(=O)O)cc2)NC(=O)[C@H](CC(N)=O)NC(=O)[C@H]2C[C@H](N)CN2C(=O)[C@H](Cc2cn(CC(=O)O)c3ccccc23)NC(=O)[C@@H]2CC[C@@H](O)CN2C(=O)[C@H](Cc2ccncc2)NC1=O [SEQ ID NO. 18] (cyclo([4Pal][Pip(5R-OH)][Trp(1-CH2COOH)][dPro(4S-NH2)]NY(Carboxymethyl)[Trp(7-CN)][αMeS][Phe(4-SO2NH2)]Y(Carboxymethyl)[Sar][Trp(βS-Me,7-OMe)][X1][Nle]))	–	–	–	10.30	< 6.00	10.10
CCCC[C@@H]1NC(=O)[C@@H]2CC[C@@H](C2)NC(=O)[C@H]([C@@H](C)c2c[nH]c3c(OC)cccc23)NC(=O)CN(C)C(=O)[C@H](Cc2cccc(C(N)=O)c2)NC(=O)[C@H](Cc2ccc(C(N)=O)cc2)NC(=O)[C@](C)(CO)NC(=O)[C@H](Cc2c[nH]c3c(C#N)cccc23)NC(=O)[C@H](Cc2ccc(C(=O)O)cc2)NC(=O)[C@H](CC(N)=O)NC(=O)[C@H]2C[C@H](F)CN2C(=O)[C@H](Cc2c[nH]c3ccccc23)NC(=O)[C@@H]2CC[C@@H](O)CN2C(=O)[C@H](Cc2ccncc2)NC1=O [SEQ ID NO. 21] (cyclo([4Pal][Pip(5R-OH)]W[dPro(trans-4-F)]N[Phe(4-COOH)][Trp(7-CN)][αMeS][Phe(4-CONH2)][Phe(3-CONH2)][Sar][Trp(βS-Me,7-OMe)][X1][Nle]))	10.52	< 6.00	10.40	–	–	–
CCCC[C@@H]1NC(=O)[C@@H]2CC[C@@H](C2)NC(=O)[C@H]([C@@H](C)c2c[nH]c3c(OC)cccc23)NC(=O)CN(C)C(=O)[C@H](Cc2ccc(C(N)=O)cc2)NC(=O)[C@H](Cc2ccc(C(N)=O)cc2)NC(=O)[C@](C)(CO)NC(=O)[C@H](Cc2c[nH]c3c(C#N)cccc23)NC(=O)[C@H](Cc2ccc3c(c2)C(=O)NC3)NC(=O)[C@H](CC(N)=O)NC(=O)[C@H]2C[C@H](OCC(=O)O)CN2C(=O)[C@H](Cc2cn(CC(=O)O)c3ccccc23)NC(=O)[C@@H]2CC[C@@H](O)CN2C(=O)[C@H](Cc2ccncc2)NC1=O [SEQ ID NO. 22] (cyclo([4Pal][Pip(5R-OH)][Trp(1-CH2COOH)][dHyp](Carboxymethyl)N[X20][Trp(7-CN)][αMeS][Phe(4-CONH2)][Phe(4-CONH2)][Sar][Trp(βS-Me,7-OMe)][X1][Nle]))	–	–	–	10.05	< 6.00	10.10
